Data on four molecules can be found in patent publication US20180161400A1 (Emisphere Technologies, Inc., priority 2004, published 2018).

Values joined by “and” are separate entries in the source; they are usually repeats but may differ in a detail not shown here. Identical values can stand only once. Counter-ions that a name gives are not always drawn.

For data set [1] the following is noted: cited from earlier work.
For data set [2] the following is noted: cited from earlier work. The source holds these as a separate data set.
For data set [3] the following is noted: cited from earlier work. This is another data set of the same source.
For data set [4], the system named is patients with impaired glucose tolerance. The settings on record: compared with placebo, over 2.8 years; cited from earlier work.
In the next data set the test system is Sprague Dawley rats. The data set is described as follows: Single oral gavage of insulin/4-CNAB/metformin solutions to fasted rats, blood glucose by hand-held glucometer. It counts as in vivo. The settings on record: for Percent Change in Glucose (from baseline), Mean / Blood Glucose, Mean: group mean n=5; for Percent Change in Glucose Compared to Carrier Alone, Mean: group mean; for Percent Change in Glucose Compared to Carrier Alone: individual rat vs vehicle group mean; for Percent Change in Glucose (from baseline) / Blood Glucose: individual rat. As to the method: These solutions were sonicated at 35° C. and the pH adjusted to 6.5-8.5 with sodium hydroxide.
Sprague Dawley rats were fasted overnight (16-24 h) and were divided into five groups for oral dosing (n=5 per group). Each rat received a single oral dose (by gavage) of dosing solution at a final dose volume of 1 mL/kg. […] The study also included a control group that received an oral dose of vehicle (water) alone. Blood samples were collected by the tail clip method at 0, 15, 30, 45, 60, 120, 180, 240 and 300 minutes and blood glucose was measured immediately using a hand-held glucometer.

Data set [5] relates to people with Type 2 diabetes. The settings on record: cited from earlier work.
Another data set concerns Type 2 diabetics. The settings on record: cited from earlier work.
The conditions of data set [6]: in vivo; cited from earlier work.
[7] abbreviates: 15 min, listed as Metformin (450).
The mark [8] stands for this setting: 30 min, listed as Metformin (450).
[9] abbreviates: 45 min, listed as Metformin (450).
The mark [10] stands for this setting: 60 min, listed as Metformin (450).
Setting [11] is: 120 min, listed as Metformin (450).
Where [12] appears, read: 180 min, listed as Metformin (450).
Setting [13] is: 240 min, listed as Metformin (450).
Where [14] appears, read: 300 min, listed as Metformin (450).

As to `CN(C)C(=N)N=C(N)N` [Metformin hydrochloride], in data set [1], the “pH of a 1% aqueous solution” value is 6.68.

Turning to `CN(C)C(=N)N=C(N)N` [Metformin, 1,1-Dimethylbiguanidine], the “times less likely to cause lactic acidosis” value in data set [2] (compared with phenformin) is on record as 20 times. The “Lactic acidosis occurrence, once in every ... of use” value in data set [2] (in vivo) is on record as 30,000 person-years. Also, in data set [2] (in vivo), the “mortality rate of lactic acidosis” value was “about 40%”. In addition, the “non-absorbed fraction recovered in feces” value in data set [3] (after an oral dose) was 20-30%. Besides, in data set [3] (controlled clinical trials, even at maximum doses), the “maximum metformin plasma levels (Cmax)” value is at most 4000 ng/mL. The “steady state plasma concentrations” value in data set [3] (usual doses and dosing schedules) was “less than 1 μg/mL”. The “reduction of the incidence of type 2 diabetes” value in data set [4] is 31%. For the same molecule, the “time of maximum decline in blood glucose” value in the data set on Sprague Dawley rats (after oral administration) is listed as “about 45 minutes”. For the same molecule, the “Percent Change in Glucose (from baseline), Mean” value is on record as 0.000% in the data set with Sprague Dawley rats (0 min); 2.053% with Sprague Dawley rats (15 min); −3.264% with Sprague Dawley rats (30 min); −13.716% in the data set with Sprague Dawley rats (45 min); −17.653% in the data set on Sprague Dawley rats (60 min); −35.050% with Sprague Dawley rats (120 min). For the same molecule, the “Percent Change in Glucose (from baseline), Mean” value with Sprague Dawley rats (180 min) is reported as −38.670%; in the data set with Sprague Dawley rats (240 min), −40.832%; in the data set on Sprague Dawley rats (300 min), −37.001%. For the same molecule, the “Blood Glucose, Mean” value is on record as 99.000 mg/dL in the data set on Sprague Dawley rats (0 min (pre-dose baseline), label doses mg/kg oral); 101.200 mg/dL in the data set with Sprague Dawley rats (15 min after single oral dose); 95.600 mg/dL in the data set with Sprague Dawley rats (30 min after single oral dose); 85.200 mg/dL in the data set with Sprague Dawley rats (45 min after single oral dose); 81.200 mg/dL with Sprague Dawley rats (60 min after single oral dose); 63.800 mg/dL in the data set on Sprague Dawley rats (120 min after single oral dose). The “Blood Glucose, Mean” value in the data set with Sprague Dawley rats (180 min after single oral dose) was determined as 60.400 mg/dL; in the data set with Sprague Dawley rats (240 min after single oral dose), 58.200 mg/dL; with Sprague Dawley rats (300 min after single oral dose), 62.400 mg/dL. Further, the “maximum decline in blood glucose from baseline” value in the data set with Sprague Dawley rats (group mean percent change at the peak time stated in the text) was −40.832%. The “Percent Change in Glucose Compared to Carrier Alone, Mean” value in the data set with Sprague Dawley rats (0 min) is recorded as 18.990%; in the data set with Sprague Dawley rats (15 min), 4.521%; in the data set on Sprague Dawley rats (30 min), 7.223%; in the data set on Sprague Dawley rats (45 min), −0.770%; in the data set on Sprague Dawley rats (60 min), 1.563%; in the data set on Sprague Dawley rats (120 min), −4.797%. For the same molecule, the “Percent Change in Glucose Compared to Carrier Alone, Mean” value is on record as −9.824% in the data set with Sprague Dawley rats (180 min), −12.757% with Sprague Dawley rats (240 min) and −2.733% in the data set on Sprague Dawley rats (300 min). Besides, the “Percent Change in Glucose Compared to Carrier Alone” value in the data set with Sprague Dawley rats (0 min, listed as Metformin (450)) is 29.808% and 5.769% and 12.981% and 17.788% and 28.606%; in the data set on Sprague Dawley rats (setting [7]) it was −8.511% and 2.128% and 6.383% and 16.085%; in the data set on Sprague Dawley rats (setting [8]), −4.063% and 8.352% (2×) and 16.253%; in the data set with Sprague Dawley rats (setting [9]) it was −8.768% and 5.450% and −2.844% and 3.081%; in the data set on Sprague Dawley rats (setting [10]), −7.500% and 5.000% (2×) and 3.750%; in the data set on Sprague Dawley rats (setting [11]), −6.977% and 4.651% and −17.151% and 0.291%. Besides, the “Percent Change in Glucose Compared to Carrier Alone” value was −22.287% and −0.293% and −7.625% and −9.091% in the data set on Sprague Dawley rats (setting [12]); −17.889% and −4.692% and −20.821% and −7.625% in the data set on Sprague Dawley rats (setting [13]); −6.752% and 9.325% and −34.084% and 20.579% with Sprague Dawley rats (setting [14]). In addition, the “Percent Change in Glucose (from baseline)” value in the data set on Sprague Dawley rats (0 min) is 0.000%; in the data set with Sprague Dawley rats (setting [7]), 4.630% and −2.273% and 2.128% and 2.041% and 3.738%; in the data set on Sprague Dawley rats (setting [8]) it was −9.259% and −3.409% and 2.128% and −2.041% and −3.738%; with Sprague Dawley rats (setting [9]), −15.741% and −12.500% and −5.319% and −16.327% and −18.692%; with Sprague Dawley rats (setting [10]), −25.000% and −15.909% and −10.638% and −14.286% and −22.430%; with Sprague Dawley rats (setting [11]), −47.222% and −27.273% and −23.404% and −41.837% and −35.514%. The “Percent Change in Glucose (from baseline)” value in the data set on Sprague Dawley rats (setting [12]) is −48.148% and −39.773% and −27.660% and −35.714% and −42.056%; in the data set on Sprague Dawley rats (setting [13]), −50.926% and −36.364% and −30.851% and −44.898% and −41.121%; in the data set on Sprague Dawley rats (setting [14]), −35.185% and −34.091% and −27.660% and −58.163% and −29.907%. Moreover, the “Blood Glucose” value in the data set with Sprague Dawley rats (0 min (pre-dose baseline), label doses mg/kg oral, listed as Metformin (450)) is 108 mg/dL and 88 mg/dL and 94 mg/dL and 98 mg/dL and 107 mg/dL; in the data set with Sprague Dawley rats (15 min after single oral dose, label doses mg/kg, listed as Metformin (450)) it was 113 mg/dL and 86 mg/dL and 96 mg/dL and 100 mg/dL and 111 mg/dL; in the data set with Sprague Dawley rats (30 min after single oral dose, label doses mg/kg, listed as Metformin (450)) it was 98 mg/dL and 85 mg/dL and 96 mg/dL (2×) and 103 mg/dL; in the data set with Sprague Dawley rats (45 min after single oral dose, label doses mg/kg, listed as Metformin (450)), 91 mg/dL and 77 mg/dL and 89 mg/dL and 82 mg/dL and 87 mg/dL; in the data set on Sprague Dawley rats (60 min after single oral dose, label doses mg/kg, listed as Metformin (450)), 81 mg/dL and 74 mg/dL and 84 mg/dL (2×) and 83 mg/dL; in the data set with Sprague Dawley rats (120 min after single oral dose, label doses mg/kg, listed as Metformin (450)) it was 57 mg/dL (2×) and 64 mg/dL and 72 mg/dL and 69 mg/dL. Further, the “Blood Glucose” value was 56 mg/dL and 53 mg/dL and 68 mg/dL and 63 mg/dL and 62 mg/dL with Sprague Dawley rats (180 min after single oral dose, label doses mg/kg, listed as Metformin (450)); 56 mg/dL (2×) and 65 mg/dL and 54 mg/dL and 63 mg/dL in the data set on Sprague Dawley rats (240 min after single oral dose, label doses mg/kg, listed as Metformin (450)); 70 mg/dL and 58 mg/dL and 68 mg/dL and 41 mg/dL and 75 mg/dL in the data set with Sprague Dawley rats (300 min after single oral dose, label doses mg/kg, listed as Metformin (450)). For the same molecule, in data set [5] (10 year UKPDS, Type 2 diabetes), the “decrease in heart attacks” value is recorded as 39%. Also, in data set [5] (10 year UKPDS, Type 2 diabetes), the “decrease in overall mortality” value is reported as 36%. For the same molecule, in the data set on Type 2 diabetics (cases of metabolic syndrome), the “reduction of raised plasma insulin levels” value is reported as at most 30%. Further, in the data set with Type 2 diabetics (human, in vivo), the “lowering of A1c, average” value is recorded as 1.5%. For the same molecule, in the data set on Type 2 diabetics (human, in vivo), the “lowering of fasting blood glucose levels, average” value was 25%. Also, the “lowering of postprandial blood glucose” value in the data set with Type 2 diabetics (human, in vivo) is given as “up to 44.5%”.

As to `CCCNC(=O)NS(=O)(=O)c1ccc(Cl)cc1` [chlorpropamide], the average weight gain in data set [5] (UKPDS intensive therapy) is 2.6 kg.

On to Glargine insulin: long-acting insulin, for which, in data set [6], the duration of activity is 24 h and the peak effect entry is on record as “no peak effect”.
